Results published in patent US8394792B2, “Heterocyclic derivatives” (C&C Research Laboratories, priority 2008, dated 2013).
pIC50: −log10 of the molar value. ≈ marks a conversion by molar mass, not a printed value. Where two headings read alike, the source gives them in different places.

Experiments:
[1] = molecular target: T1, hURAT1 (Homo sapiens, UniProt Q96S37); test: Test for inhibiting urate reuptake activity via hURAT1 (uric acid transport assay in hURAT1-overexpressed HEK293 cell line); type: cell-based; conditions: hURAT1-overexpressed HEK293 cells, [14C]-uric acid uptake, 100 μM uric acid; read-out: IC50 (μM) hURAT, level of uric acid reuptake inhibition
T1 construct: expressed in transfected cells; host or cells: HEK293 (human kidney cell line), transient transfection with Fugene6
T1 sequence (Q96S37 1-553): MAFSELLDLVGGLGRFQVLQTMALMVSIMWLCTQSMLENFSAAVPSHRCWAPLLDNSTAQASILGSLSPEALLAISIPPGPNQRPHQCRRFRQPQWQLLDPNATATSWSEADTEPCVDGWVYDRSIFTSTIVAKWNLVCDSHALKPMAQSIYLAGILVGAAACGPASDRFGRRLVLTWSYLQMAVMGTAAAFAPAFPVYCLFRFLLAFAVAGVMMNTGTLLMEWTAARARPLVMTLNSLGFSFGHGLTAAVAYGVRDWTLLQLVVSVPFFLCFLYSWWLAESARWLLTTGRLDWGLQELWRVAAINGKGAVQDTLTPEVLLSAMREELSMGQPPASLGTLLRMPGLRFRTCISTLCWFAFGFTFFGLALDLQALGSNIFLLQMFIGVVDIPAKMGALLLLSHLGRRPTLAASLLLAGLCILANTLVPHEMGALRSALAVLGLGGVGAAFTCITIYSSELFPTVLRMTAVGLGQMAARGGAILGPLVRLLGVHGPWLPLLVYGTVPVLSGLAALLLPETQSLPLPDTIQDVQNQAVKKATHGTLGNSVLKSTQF
Description: Test for Inhibiting Urate Reuptake Activity Via hURAT1
[hURAT1 Overexpression by Transient Transfection in Human Kidney Cell Line]
A human kidney cell line, HEK293 was incubated by using OptiMEM medium in 100 mm dish at (3*10^6 cells) for 24 hours. In order for the expression of hURAT1, a transfection mixture solution (Fugene6 18 μl:hURAT1 DNA 6 μg=3:1, in 600 μl OptiMEM medium/dish) was prepared and kept for 15 minutes at room temperature. To each dish, 600 μl of the mixture solution was injected and then incubated in 37[…] cell incubator for 24 hours. The hURAT1-overexpressed HEK293 cell line was trypsinized and cells were harvested. Cells were resuspended in medium and seeded at 6*10^5 cells/well and incubated for 24 hours in 24-well plate which was surface-coated with Poly-D-Lysine.
[Uric Acid Transport Assay in hURAT1-Overexpressed HEK293 Cell Line]
For each concentration, the stock sample solution was diluted in PBS (1 μl in 800 μl of PBS) as 1.25 fold concentrated working sample solution to obtain final concentrations of 0.01, 0.1, 1 and 10 μM. The hURAT1-overexpressed cell line was washed with 1 ml of PBS. After washing, PBS was discarded and the sample solution was diluted by 1.25 fold with PBS. Preincubation of cells with 200 μl/well of sample solution made above was conducted for 30 minutes in 37[…] cell incubator. After the incubation, each well was treated with 50 μl of PBS containing 500 μM [^14C]-uric acid (final 100 μM of uric acid/well). Cells were incubated for 2 minutes. The cells were washed twice with 1 ml of PBS.
To measure the uric acid uptake, each well was treated with 150 μl of M-per buffer (PIERCE) and kept in 37° C. cell incubator for 30 minutes to make cell lysates. 150 μl of cell lysates was transferred into test tube and 4 ml of scintillation cocktail was added. CPM value of [^14C]-uric acid absorbed into cells was detected using liquid scintillation counter. IC50 for the inhibition of uric acid uptake by each test sample was analyzed by computational numerical processing.

[2] = Test for solubility according to pH; type: physicochemical; conditions: 37° C. 2 hours; for solubility at 2 h: thermodynamic from solid
Description: 2.0 g of sodium chloride was dissolved in 7.0 mL of hydrochloric acid and water to make the total volume of 1000 mL. This solution was colorless and clear. Its pH was about 1.2.
To 250 mL of 0.2 mol/L potassium dihydrogen phosphate solution, 118 mL of 0.2 mol/L sodium hydroxide solution and water were added to make the total volume of 1000 mL. This solution was colorless and clear. Its pH was about 6.8.
For the compounds of present invention prepared in the examples, the test samples were prepared in each of the first and second solutions with 2 mg/mL concentration. This test sample solution was agitated for 10 seconds, sonicated for 1 minute and heated at 37° C. for 2 hours. The heated test sample solution was filtered to remove undissolved compounds therein. From filtered solution, 100 μl of the completely dissolved solution was sampled and 100 μl of acetonitrile was added thereto to make test sample solution. For each analysis of test sample solution, the solubility was measured by using liquid chromatography.

[3] = molecular target: CYP2C9 (Homo sapiens, UniProt P11712); test: biochemical
[4] = 37 °C, pH 1.2, simulated gastric fluid, first solution pH about 1.2, 2 mg/mL, read-out: Solubility (μg/mL) pH 1.2
[5] = 37 °C, pH 6.8, aqueous buffer, second solution pH about 6.8, 2 mg/mL, read-out: Solubility (μg/mL) pH 6.8

Chain of CYP2C9 (P11712 whole entry): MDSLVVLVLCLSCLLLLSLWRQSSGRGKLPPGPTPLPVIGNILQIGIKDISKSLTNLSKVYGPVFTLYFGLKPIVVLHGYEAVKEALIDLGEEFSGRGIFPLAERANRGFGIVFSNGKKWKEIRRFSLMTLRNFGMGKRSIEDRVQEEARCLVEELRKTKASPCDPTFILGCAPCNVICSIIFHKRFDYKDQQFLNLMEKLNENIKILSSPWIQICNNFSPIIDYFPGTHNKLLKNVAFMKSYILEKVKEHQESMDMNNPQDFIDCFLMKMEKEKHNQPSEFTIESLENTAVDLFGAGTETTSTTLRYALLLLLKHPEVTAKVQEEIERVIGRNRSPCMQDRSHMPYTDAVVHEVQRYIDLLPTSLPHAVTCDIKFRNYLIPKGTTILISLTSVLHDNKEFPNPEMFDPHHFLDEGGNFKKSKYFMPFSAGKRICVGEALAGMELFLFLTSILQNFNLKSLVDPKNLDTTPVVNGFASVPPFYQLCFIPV

| Compound | IC50 [1] [µM] | solubility at 2 h [2, 4] [µg/mL] | solubility at 2 h [2, 5] [µg/mL] | pIC50 [3] | solubility at 2 h ([2]; pH 1.2, simulated gastric fluid, first solution pH about 1.2, 2 mg/mL, read-out: Solubility (μg/mL) pH 1.2) [µg/mL] | solubility at 2 h ([2]; pH 6.8, aqueous buffer, second solution pH about 6.8, 2 mg/mL, read-out: Solubility (μg/mL) pH 6.8) [µg/mL] | Solubility (μg/mL) pH 1.2 ([2]; first solution pH about 1.2, 2 mg/mL) [μg/mL] | Solubility (μg/mL) pH 6.8 ([2]; second solution pH about 6.8, 2 mg/mL) [μg/mL] |
| --- | --- | --- | --- | --- | --- | --- | --- | --- |
| O=C(c1cc(Cl)c(O)c([N+](=O)[O-])c1)N1CCOc2ccncc21 [Compound 14, (3-chloro-4-hydroxy-5-nitro-phenyl)-(2,3-dihydro-pyrido[4,3-b][1,4]oxazin-4-yl)-methanone] | 0.126 | 1480 (≈ 4410 µM) | 747 (≈ 2230 µM) | 4.78 |  |  |  |  |
| O=C(c1cc(Br)c(O)c(Br)c1)N1CCOc2ncc(C(F)(F)F)cc21 [Compound 22-2, (3,5-dibromo-4-hydroxy-phenyl)-(7-trifluoromethyl-2,3-dihydro-pyrido[2,3-b][1,4]oxazin-1-yl)-methanone] | 0.0043 | < 0.1 | 153 (≈ 317 µM) | 5.02 |  |  |  |  |
| COC(=O)COc1c(Br)cc(C(=O)N2CCOc3ccncc32)cc1Br [Compound 24, (2,6-dibromo-4-(2,3-dihydro-pyrido[4,3-b][1,4]oxazin-4-carbonyl)-phenoxy]-acetic acid methyl ester] | 0.363 | 1250 (≈ 2580 µM) | 134 (≈ 275 µM) | < 4.70 |  |  |  |  |
| O=C(c1cc(Cl)c(O)c(Cl)c1)N1CCOc2ccncc21 [Compound 39, (3,5-dichloro-4-hydroxy-phenyl)-(2,3-dihydro-pyrido[4,3-b][1,4]oxazin-4-yl)-methanone] | 0.0884 | 1340 (≈ 4120 µM) | 480 (≈ 1480 µM) | < 4.70 |  |  |  |  |
| O=C(c1cc(Br)c(O)c(Br)c1)N1CCOc2ncncc21 [Compound 62, (3,5-dibromo-4-hydroxy-phenyl)-(6,7-dihydro-pyrimido[4,5-b][1,4]oxazin-5-yl)-methanone] | 0.128 | 34.8 (≈ 83.8 µM) | 624 (≈ 1500 µM) | < 4.70 |  |  |  |  |
| O=C(c1ccc(O)c(C(F)(F)F)c1)N1CCOc2ccncc21 [Compound 12, (2,3-dihydro-pyrido[4,3-b][1,4]oxazin-4-yl)-(4-hydroxy-3-trifluoromethyl-phenyl)-methanone] | 0.0408 | 1880 (≈ 5800 µM) | 132 (≈ 407 µM) | < 4.22 |  |  |  |  |
| O=C(c1cc(Cl)c(O)c([N+](=O)[O-])c1)N1CCOc2cnccc21 [Compound 36, (3-chloro-4-hydroxy-5-nitro-phenyl)-(2,3-dihydro-pyrido[3,4-b][1,4]oxazin-1-yl)-methanone] | 0.175 | 1560 (≈ 4650 µM) | 743 (≈ 2210 µM) | 5.71 |  |  |  |  |
| Cc1ccc2c(n1)OCCN2C(=O)c1cc(Br)c(O)c(Br)c1 [Compound 7, (3,5-dibromo-4-hydroxy-phenyl)-(6-methyl-2,3-dihydro-pyrido[2,3-b][1,4]oxazin-1-yl)-methanone] | 0.3 | 106 (≈ 247 µM) | 109 (≈ 255 µM) | < 4.70 |  |  |  |  |
| Br.O=C(c1cc(Cl)c(O)c(Cl)c1)N1CCOc2ccncc21 [Compound 13, (3,5-dichloro-4-hydroxy-phenyl)-(2,3-dihydro-pyrido[4,3-b][1,4]oxazin-4-yl)-methanone bromic acid salt] | 0.337 |  |  | < 4.22 | 1400 | 847 |  |  |
| O=C(c1ccc(O)c(Cl)c1)N1CCOc2ccncc21 [Compound 37, (3-chloro-4-hydroxy-phenyl)-(2,3-dihydro-pyrido[4,3-b][1,4]oxazin-4-yl)-methanone] | 0.212 | 1930 (≈ 6640 µM) | 114 (≈ 393 µM) | < 4.70 |  |  |  |  |
| O=C(c1cc(Cl)c(O)c(Cl)c1)N1CCOc2cnccc21 [Compound 41, (3,5-dichloro-4-hydroxy-phenyl)-(2,3-dihydro-pyrido[3,4-b][1,4]oxazin-1-yl)-methanone] | 0.376 |  |  | < 4.70 |  |  | 808.87 | 156.54 |
| O=C(c1cc(F)c(O)c(F)c1)N1CCOc2ccncc21 [Compound 29, (3,5-difluoro-4-hydroxy-phenyl)-(2,3-dihydro-pyrido[4,3-b][1,4]oxazin-4-yl)-methanone] | 0.235 | 1090 (≈ 3720 µM) | 382 (≈ 1310 µM) | < 4.70 |  |  |  |  |
| O=C(c1cc(Br)c(O)c(Br)c1)N1CCOc2ncccc21 [Compound 1, (3,5-dibromo-4-hydroxy-phenyl)-(2,3-dihydro-pyrido[2,3-b][1,4]oxazin-1-yl)-methanone] | 0.079 | 56.1 (≈ 135 µM) | 277 (≈ 669 µM) | 4.92 |  |  |  |  |
| O=S(=O)(c1cc(Br)c(O)c(Br)c1)N1CCOc2ccncc21 [Compound 35-2, 2,6-dibromo-4-(2,3-dihydro-pyrido[4,3-b][1,4]oxazin-4-sulfonyl)-phenol] | 0.277 | 1460 (≈ 3240 µM) | 234 (≈ 519 µM) | < 4.70 |  |  |  |  |
| CC1(C)CN(C(=O)c2cc(Br)c(O)c(Br)c2)c2cnccc2O1 [Compound 8, (3,5-dibromo-4-hydroxy-phenyl)-(2,2-dimethyl-2,3-dihydro-pyrido[4,3-b][1,4]oxazin-4-yl)-methanone] | 0.353 | 986 (≈ 2230 µM) | 344 (≈ 778 µM) | < 4.70 |  |  |  |  |
| Cc1cnc2c(c1)N(C(=O)c1cc(Br)c(O)c(Br)c1)CCO2 [Compound 27-2, (3,5-dibromo-4-hydroxy-phenyl)-(7-methyl-2,3-dihydro-pyrido[2,3-b][1,4]oxazin-1-yl)-methanone] | 0.012 | 207 (≈ 484 µM) | 579 (≈ 1350 µM) | < 4.70 |  |  |  |  |
| N#Cc1cnc2c(c1)N(C(=O)c1cc(Br)c(O)c(Br)c1)CCO2 [Compound 47-2, 1-(3,5-dibromo-4-hydroxy-benzoyl)-2,3-dihydro-1H-pyrido[2,3-b][1,4]oxazin-7-carbonitrile] | 0.0179 | 6.4 (≈ 14.6 µM) | 330 (≈ 751 µM) | < 4.70 |  |  |  |  |
| O=C(c1cc(Br)c(O)c(Br)c1)N1CCOc2ccnc(Cl)c21 [Compound 30, (5-chloro-2,3-dihydro-pyrido[4,3-b][1,4]oxazin-4-yl)-(3,5-dibromo-4-hydroxy-phenyl)-methanone] | 0.028 | 7.2 (≈ 16.1 µM) | 332 (≈ 740 µM) | < 4.40 |  |  |  |  |
| O=C(Cc1cc(Br)c(O)c(Br)c1)N1CCOc2ccncc21 [Compound 42, 2-(3,5-dibromo-4-hydroxy-phenyl)-1-(2,3-dihydro-pyrido[4,3-b][1,4]oxazin-4-yl)-ethanone] | 0.2 | 1310 (≈ 3060 µM) | 143 (≈ 333 µM) | 4.74 |  |  |  |  |
